Measurements as given in PMC5301252, “A new approach to quantification of mAb aggregates using peptide affinity probes” (Scientific Reports, 2017).

Legend:
[1] = tested on: control non-aggregated NISTmAb; assay: Phage ELISA, binding to control NISTmAb; conditions: phage clone displaying the peptide; 2 hours, room temperature; absorbance 450 nm; three analytical replicates
Description: (§1) In the second step, a sample of the cross-linked NISTmAb was used as bait to screen a Ph.D.−12 phage display peptide library. The bait represents a mixture of monomer and cross-linked aggregated NISTmAb; this was also the only occasion when cross-linked sample was used. Phage display panning was performed in a subtractive manner. The library was initially depleted with control non-aggregated NISTmAb using three iterative cycles. The unbound phage was then screened on cross-linked NISTmAb aggregates, again using three iterative cycles of phage binding, elution, and amplification. After these rounds of panning, the single phage plaques were randomly picked up and amplified, and phage DNA was submitted for sequencing. In parallel, the ability to bind NISTmAb aggregates was evaluated using phage enzyme-linked immunosorbent assay (ELISA) for all selected phage clones. […] Clones #1 and #4 show respectively 9-fold and 7-fold better binding toward aggregated NISTmAb, compared to their binding toward control non-aggregated NISTmAb. […]
(§2) To assess the binding ability of the selected phages toward NISTmAb aggregates, 1 × 10^10 pfu of P02-C06 phage was incubated with 50 μg of NISTmAb aggregates at room temperature for 2 hours. […] Tetramethybezidine substrate reagent (eBioscience, San Diego, CA) was subsequently added and absorbance was read at 450 nm.

[2] = tested on: NISTmAb aggregates generated by agitation; assay: Phage ELISA, binding to aggregated NISTmAb versus control NISTmAb; conditions: phage clone displaying the peptide, 2 hours, room temperature
Description: as §1, §2

GNNPLHVHHDKRGGG [P02-C04] was tested, and the “affinity toward non-aggregated NISTmAb, compared to other clones” value [1] was “lowest”, the binding preference ([2]; aggregated vs control NISTmAb, absorbance 450 nm) was “preferential binding to NISTmAb aggregates” and the “fold better binding toward aggregated NISTmAb compared to control non-aggregated NISTmAb” value ([2]; 1 × 10^10 pfu, HRP anti-M13, absorbance 450 nm, three analytical replicates) was 7 -fold.
